Results taken from patent publication US8410112B2, “Compounds useful as inhibitors of ATR kinase” (Vertex Pharmaceuticals Incorporated, priority 2008, dated 2013).

Biological target: T1, full-length ATR (Homo sapiens, UniProt Q13535)
T1 construct: in the presence of 5 nM full-length ATR
Assay: ATR Inhibition Assay (radioactive-phosphate incorporation)
Assay type: biochemical
Conditions: Ki(app); 5 nM full-length ATR, 10 μM ATP, 800 μM target peptide, 25° C.
Procedure, shortened: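 After a 10-min pre-incubation of compound with 5 nM enzyme at 25 °C, ATP was added to start the reaction (final 10 μM [γ-33P]ATP, 800 μM peptide; Tris/HCl pH 7.5, MgCl2, DTT), which ran 24 h. Incorporated 33P was captured on phosphocellulose filters, and Ki(app) was fitted by non-linear regression.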

T1 sequence (Q13535 whole entry): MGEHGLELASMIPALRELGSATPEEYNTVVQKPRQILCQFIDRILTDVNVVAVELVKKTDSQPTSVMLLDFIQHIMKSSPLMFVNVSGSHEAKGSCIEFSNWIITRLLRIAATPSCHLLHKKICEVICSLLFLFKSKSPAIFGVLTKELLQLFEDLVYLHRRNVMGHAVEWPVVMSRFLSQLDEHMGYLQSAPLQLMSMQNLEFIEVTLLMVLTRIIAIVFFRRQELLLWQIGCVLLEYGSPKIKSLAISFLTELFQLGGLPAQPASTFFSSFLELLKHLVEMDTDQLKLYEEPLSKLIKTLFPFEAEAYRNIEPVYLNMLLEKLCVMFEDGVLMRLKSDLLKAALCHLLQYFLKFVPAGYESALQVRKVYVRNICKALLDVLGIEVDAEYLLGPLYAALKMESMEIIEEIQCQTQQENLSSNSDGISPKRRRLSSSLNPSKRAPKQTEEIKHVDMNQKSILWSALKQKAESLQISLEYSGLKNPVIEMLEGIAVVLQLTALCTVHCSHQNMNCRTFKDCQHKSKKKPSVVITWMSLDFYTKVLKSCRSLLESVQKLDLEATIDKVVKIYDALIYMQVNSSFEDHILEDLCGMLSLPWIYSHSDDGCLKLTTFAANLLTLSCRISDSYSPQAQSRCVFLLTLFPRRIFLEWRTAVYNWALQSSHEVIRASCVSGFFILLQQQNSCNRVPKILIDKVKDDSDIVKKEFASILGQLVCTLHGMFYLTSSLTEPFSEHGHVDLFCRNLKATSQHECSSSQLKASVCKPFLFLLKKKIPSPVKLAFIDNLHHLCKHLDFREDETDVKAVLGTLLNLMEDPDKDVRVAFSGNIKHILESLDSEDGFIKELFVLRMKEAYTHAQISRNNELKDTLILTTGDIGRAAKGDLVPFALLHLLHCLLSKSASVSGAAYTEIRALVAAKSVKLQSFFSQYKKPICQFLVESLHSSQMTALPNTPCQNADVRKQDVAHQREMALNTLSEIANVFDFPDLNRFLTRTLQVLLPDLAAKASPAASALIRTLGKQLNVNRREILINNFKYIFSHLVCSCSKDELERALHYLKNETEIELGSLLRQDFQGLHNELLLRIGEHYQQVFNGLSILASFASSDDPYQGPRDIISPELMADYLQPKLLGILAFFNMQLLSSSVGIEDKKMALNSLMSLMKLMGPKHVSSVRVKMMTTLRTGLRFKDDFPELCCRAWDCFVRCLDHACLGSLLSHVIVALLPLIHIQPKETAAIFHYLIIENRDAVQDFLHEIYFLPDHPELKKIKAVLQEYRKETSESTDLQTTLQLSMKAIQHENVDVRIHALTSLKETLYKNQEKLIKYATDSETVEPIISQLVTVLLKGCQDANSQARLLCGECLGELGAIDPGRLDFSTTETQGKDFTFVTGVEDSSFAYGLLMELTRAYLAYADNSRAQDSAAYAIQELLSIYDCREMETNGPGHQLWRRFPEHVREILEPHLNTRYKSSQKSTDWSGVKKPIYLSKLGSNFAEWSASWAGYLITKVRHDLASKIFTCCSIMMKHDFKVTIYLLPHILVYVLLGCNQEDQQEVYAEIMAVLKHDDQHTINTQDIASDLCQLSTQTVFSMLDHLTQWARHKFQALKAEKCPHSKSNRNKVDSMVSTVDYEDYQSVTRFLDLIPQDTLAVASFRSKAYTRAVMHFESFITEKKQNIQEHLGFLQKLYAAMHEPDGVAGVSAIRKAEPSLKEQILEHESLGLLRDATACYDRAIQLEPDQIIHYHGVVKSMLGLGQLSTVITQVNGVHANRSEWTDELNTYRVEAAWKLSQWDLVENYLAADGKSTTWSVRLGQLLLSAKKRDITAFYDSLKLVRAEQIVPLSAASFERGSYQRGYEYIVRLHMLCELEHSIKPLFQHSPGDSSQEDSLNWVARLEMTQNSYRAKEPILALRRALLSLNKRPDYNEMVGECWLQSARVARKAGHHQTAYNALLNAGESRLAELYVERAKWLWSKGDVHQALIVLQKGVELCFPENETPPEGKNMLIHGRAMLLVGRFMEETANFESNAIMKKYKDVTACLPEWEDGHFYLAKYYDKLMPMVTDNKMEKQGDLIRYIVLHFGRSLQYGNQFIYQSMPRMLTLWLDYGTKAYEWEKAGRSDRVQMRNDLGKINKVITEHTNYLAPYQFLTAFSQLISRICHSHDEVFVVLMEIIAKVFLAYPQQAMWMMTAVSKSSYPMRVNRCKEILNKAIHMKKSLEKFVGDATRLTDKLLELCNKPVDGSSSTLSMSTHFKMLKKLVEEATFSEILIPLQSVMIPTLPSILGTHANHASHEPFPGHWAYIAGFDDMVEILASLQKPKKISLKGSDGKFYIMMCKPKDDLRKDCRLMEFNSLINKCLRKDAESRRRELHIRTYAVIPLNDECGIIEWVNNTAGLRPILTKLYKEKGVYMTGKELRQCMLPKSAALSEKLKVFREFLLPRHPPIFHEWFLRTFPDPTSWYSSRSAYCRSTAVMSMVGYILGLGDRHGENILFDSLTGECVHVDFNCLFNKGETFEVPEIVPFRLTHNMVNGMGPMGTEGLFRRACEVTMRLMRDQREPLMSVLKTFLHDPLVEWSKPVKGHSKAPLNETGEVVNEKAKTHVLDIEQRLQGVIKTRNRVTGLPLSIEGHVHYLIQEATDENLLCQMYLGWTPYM

| Ki [nM] | Compound |
| --- | --- |
| < 100 | CN(C)S(=O)(=O)N1CC=C(c2cnc(N)c(-c3nc4ccccc4[nH]3)n2)CC1 [Compound I-89, 4-(5-amino-6-(1H-benzo[d]imidazol-2-yl)pyrazin-2-yl)-N,N-dimethyl-5,6-dihydropyridine-1(2H)-sulfonamide] |
| 100 to 1000 | CCS(=O)(=O)N1CCN(c2cnc(N)c(-c3cc(-c4ccccc4)no3)n2)CC1 [Compound I-162, 5-(4-(ethylsulfonyl)piperazin-1-yl)-3-(3-phenylisoxazol-5-yl)pyrazin-2-amine] |
| < 100 | Nc1ncc(C2=CCN(C(=O)N3CCCC3)CC2)nc1-c1nnc(-c2ccccc2)o1 [Compound I-226, (4-(5-amino-6-(5-phenyl-1,3,4-oxadiazol-2-yl)pyrazin-2-yl)-5,6-dihydropyridin-1(2H)-yl)(pyrrolidin-1-yl)methanone] |
| < 100 | Nc1ncc(C2=CCN(S(=O)(=O)c3ccoc3)CC2)nc1-c1nnc(-c2ccccc2)o1 [Compound I-123, 5-(1-(furan-3-ylsulfonyl)-1,2,3,6-tetrahydropyridin-4-yl)-3-(5-phenyl-1,3,4-oxadiazol-2-yl)pyrazin-2-amine] |
| 100 to 1000 | CCS(=O)(=O)N1CCN(c2cnc(N)c(-c3nnc(-c4cccc(F)c4)o3)n2)CC1 [Compound I-283, 5-(4-ethylsulfonylpiperazin-1-yl)-3-[5-(3-fluorophenyl)-1,3,4-oxadiazol-2-yl]pyrazin-2-amine] |

Continued, compound first:

| Compound | Ki [nM] |
| --- | --- |
| Nc1ncc(N2CC[C@H](NC(=O)c3ccccc3)C2)nc1-c1nc2ccccc2[nH]1 [Compound I-108, (S)-N-(1-(5-amino-6-(1H-benzo[d]imidazol-2-yl)pyrazin-2-yl)pyrrolidin-3-yl)benzamide] | 100 to 1000 |
| Cc1ccc2nc(-c3nc(N4CCCC(N(C)C)C4)cnc3N)[nH]c2c1 (stereo not shown) [Compound I-51, 5-(3-(dimethylamino)piperidin-1-yl)-3-(6-methyl-1H-benzo[d]imidazol-2-yl)pyrazin-2-amine] | 1000 to 10000 |
| CCS(=O)(=O)N1CCN(c2cnc(N)c(-c3nnc(-c4c(F)cccc4F)o3)n2)CC1 [Compound I-289, 3-[5-(2,6-difluorophenyl)-1,3,4-oxadiazol-2-yl]-5-(4-ethylsulfonylpiperazin-1-yl)pyrazin-2-amine] | 100 to 1000 |
| CNCc1ccc(-c2nnc(-c3nc(C4CC4C(=O)N(C)CCOC)cnc3N)o2)cc1 (stereo not shown) [Compound I-377] | 1000 to 10000 |
| CNCc1ccc(-c2nnc(-c3nc(C4CC4C(=O)N4CC[C@@H](N)C4)cnc3N)o2)cc1 (stereo partly drawn) [Compound I-374, (2-(5-Amino-6-(5-(4-((methylamino)methyl)phenyl)-1,3,4-oxadiazol-2-yl)pyrazin-2-yl)cyclopropyl)((R)-3-aminopyrrolidin-1-yl)methanone] | 1000 to 10000 |
| Cc1ccc2nc(-c3nc(N4CCSCC4)cnc3N)[nH]c2c1 [Compound I-8, 3-(6-methyl-1H-benzo[d]imidazol-2-yl)-5-thiomorpholinopyrazin-2-amine] | 100 to 1000 |
| Cc1ccc2nc(-c3nc(N4CCC(C(N)=O)CC4)cnc3N)[nH]c2c1 [Compound I-14, 1-(5-amino-6-(6-methyl-1H-benzo[d]imidazol-2-yl)pyrazin-2-yl)piperidine-4-carboxamide] | 1000 to 10000 |
| CCS(=O)(=O)N1C2CCC1CN(c1cnc(N)c(-c3nnc(-c4ccc(CNC)cc4)o3)n1)C2 [Compound I-341, 5-(8-Ethylsulfonyl-3,8-diazabicyclo[3.2.1]octan-3-yl)-3-[5-[4-(methylaminomethyl)phenyl]-1,3,4-oxadiazol-2-yl]pyrazin-2-amine] | 100 to 1000 |
| CC(=O)N[C@H]1CCN(c2cnc(N)c(-c3nc4ccccc4[nH]3)n2)C1 [Compound I-185, (S)-N-(1-(5-amino-6-(1H-benzo[d]imidazol-2-yl)pyrazin-2-yl)pyrrolidin-3-yl)ethanamide] | 100 to 1000 |
| Nc1ncc(N2CCN(S(=O)(=O)c3ccccc3)CC2)nc1C(=O)Nc1ccccn1 [Compound I-207, 3-amino-6-(4-(phenylsulfonyl)piperazin-1-yl)-N-(pyridin-2-yl)pyrazine-2-carboxamide] | 100 to 1000 |
| Nc1ncc(N2CCN(c3nccs3)CC2)nc1-c1nc2ccccc2[nH]1 [Compound I-277] | 100 to 1000 |
